Reference: US9210914B2, “Method for training honeybees to respond to olfactory stimuli and enhancement of memory retention therein” (LOS ALAMOS NATIONAL SECURITY, LLC, priority 2011, dated 2015)

How the values were obtained:
Type in all cases: in vivo, Apis mellifera
honeybees [1] = assay: Trainability of honeybees in PER olfactory conditioning; settings: JHIII alone, 250 mg/ml in acetone, topical administration to thorax, 3 ul; foragers (TNT) or young (linalool)
honeybees [2] = assay: Long-term memory retention of conditioned PER response in honeybees fed supplements
Description: (§1) The bees were brought back to the lab and split into three groups. One control group was fed 40% sugar water in a trough or on parafilm in cage. […] The second and third experimental groups were given 40% sugar water spiked with the cocktail. All honeybees were handled the same way. The mixture was to the honeybees from the beginning of capture, through training and until the completion of the experiment.
Long-term memory enhancements using PKA and caffeine were also tested. […] Approximately 3.9 units PKA/bee (1 μl) and 15.6 units PKA/bee (4 μl) were administrated.

honeybees [3] = assay: Death rate of honeybees after supplement administration; settings: Four μl PKA (15.6 units PKA/bee)
Description: as §1
Long-term memory enhancements using PKA and caffeine were also tested. Caffeine and PKA, when administered separately, increase long-term memory out to a minimum of 3 days post training. Approximately 3.9 units PKA/bee (1 μl) and 15.6 units PKA/bee (4 μl) were administrated.

[4] = 1 μl PKA (approximately 3.9 units PKA/bee)

In the case of `COC(=O)/C=C(\C)CC/C=C(\C)CC[C@H]1OC1(C)C` [JHIII, Juvenile Hormone III], the trainability (honeybees [1]) is reported as “does not appear to substantially increase trainability”.
With `Cn1c(=O)c2c(ncn2C)n(C)c1=O` [Caffeine, caffeine] the “long term memory recall” value (honeybees [2]; caffeine at 2.5 mM, compared to concentrations ranging 0-5 mM) was “best improvement in long term memory recall”.
With protein kinase A [PKA] the “long-term memory at the 24 hour mark” value (honeybees [2]; [4]) was “increase in long-term memory”, the “long-term memory at the 48 hour mark” value (honeybees [2]; [4]) was “increase in long-term memory” and the “death rate at Day 3 post training and exposure” value (honeybees [3]) was “larger death rate”.
In the case of `Nc1ncnc2c1ncn2[C@@H]1O[C@@H]2COP(=O)(O)O[C@H]2[C@H]1O` [cAMP, cyclic adenosine monophosphate], the “long-term memory in honeybees trained to C-4” value (honeybees [2]; 1mM cAMP ingested in 40% sucrose solution, alone) is reported as “did not appear to significantly increase long-term memory”.
